# Laboratory results reported in patent US9897551B2, “Method for accelerated degradation of thermoplastics” (priority 2013, dated 2018).
# Where two headings read alike, the source gives them in different places.
# What was measured:
# [1] = pKa values of end-capping agents; type: physicochemical; details: approximated based on the values of similar structures
# [2] = values taken from literature references (footnote); cited from earlier work
SMILES,pKa [1],pKa [2]
CC(C)(c1ccccc1)c1ccc(O)cc1 [p-cumylphenol],10.5,
COc1ccc(O)cc1 [p-methoxyphenol],,10.4
